From BigSolDB 2.1

Question: For COC(=O)[C@H](c1ccccc1Cl)N1CCc2sccc2C1.O=S(=O)(O)O, which solubility (mole fraction) (in MTBE, 273.15 K) is on record?
Answer: 6.2e-05

Question: And the solubility (mole fraction) (in MTBE, 278.15 K)?
Answer: 6.5e-05

Question: What about the solubility (mole fraction) (in MTBE, 283.15 K) of the same compound?
Answer: 7.5e-05

Question: And the solubility (mole fraction) (in MTBE, 288.15 K)?
Answer: 8.6e-05

Question: What about the solubility (mole fraction) (in MTBE, 293.15 K) of the same compound?
Answer: 0.000101

Question: And the solubility (mole fraction) (in MTBE, 298.15 K)?
Answer: 0.00011

Question: And the solubility (mole fraction) (in MTBE, 303.15 K)?
Answer: 0.000122

Question: What about the solubility (mole fraction) (in MTBE, 308.15 K) of the same compound?
Answer: 0.000125

Question: And the solubility (mole fraction) (in acetone, 273.15 K)?
Answer: 0.0188

Question: And the solubility (mole fraction) (in acetone, 278.15 K)?
Answer: 0.0262

Question: What about the solubility (mole fraction) (in acetone, 283.15 K) of the same compound?
Answer: 0.0339

Question: And the solubility (mole fraction) (in acetone, 288.15 K)?
Answer: 0.0436

Question: What about the solubility (mole fraction) (in acetone, 293.15 K) of the same compound?
Answer: 0.0474

Question: What about the solubility (mole fraction) (in acetone, 298.15 K) of the same compound?
Answer: 0.0567

Question: And the solubility (mole fraction) (in acetone, 303.15 K)?
Answer: 0.0672

Question: What about the solubility (mole fraction) (in acetone, 308.15 K) of the same compound?
Answer: 0.076

Question: What about the solubility (mole fraction) (in ethyl acetate, 273.15 K) of the same compound?
Answer: 0.000278

Question: What about the solubility (mole fraction) (in ethyl acetate, 278.15 K) of the same compound?
Answer: 0.000325

Question: And the solubility (mole fraction) (in ethyl acetate, 283.15 K)?
Answer: 0.000342

Question: What about the solubility (mole fraction) (in ethyl acetate, 288.15 K) of the same compound?
Answer: 0.000401

Question: And the solubility (mole fraction) (in ethyl acetate, 293.15 K)?
Answer: 0.000457

Question: And the solubility (mole fraction) (in ethyl acetate, 298.15 K)?
Answer: 0.000511

Question: And the solubility (mole fraction) (in ethyl acetate, 303.15 K)?
Answer: 0.000543

Question: What about the solubility (mole fraction) (in ethyl acetate, 308.15 K) of the same compound?
Answer: 0.000619

Question: What about the solubility (mole fraction) (in isopropanol, 273.15 K) of the same compound?
Answer: 0.00815

Question: And the solubility (mole fraction) (in isopropanol, 278.15 K)?
Answer: 0.0113

Question: And the solubility (mole fraction) (in isopropanol, 283.15 K)?
Answer: 0.0132

Question: And the solubility (mole fraction) (in isopropanol, 288.15 K)?
Answer: 0.0198

Question: And the solubility (mole fraction) (in isopropanol, 293.15 K)?
Answer: 0.0237

Question: What about the solubility (mole fraction) (in isopropanol, 298.15 K) of the same compound?
Answer: 0.0305

Question: And the solubility (mole fraction) (in isopropanol, 303.15 K)?
Answer: 0.0382

Question: And the solubility (mole fraction) (in isopropanol, 308.15 K)?
Answer: 0.0463

Question: And the solubility (mole fraction) (in methyl acetate, 273.15 K)?
Answer: 0.000959

Question: And the solubility (mole fraction) (in methyl acetate, 278.15 K)?
Answer: 0.00103

Question: And the solubility (mole fraction) (in methyl acetate, 283.15 K)?
Answer: 0.00112

Question: And the solubility (mole fraction) (in methyl acetate, 288.15 K)?
Answer: 0.00122

Question: And the solubility (mole fraction) (in methyl acetate, 293.15 K)?
Answer: 0.00133

Question: What about the solubility (mole fraction) (in methyl acetate, 298.15 K) of the same compound?
Answer: 0.00151

Question: And the solubility (mole fraction) (in methyl acetate, 303.15 K)?
Answer: 0.00188

Question: What about the solubility (mole fraction) (in methyl acetate, 308.15 K) of the same compound?
Answer: 0.00214

Question: What about the solubility (mole fraction) (in n-butanol, 273.15 K) of the same compound?
Answer: 0.0502

Question: What about the solubility (mole fraction) (in n-butanol, 278.15 K) of the same compound?
Answer: 0.056

Question: What about the solubility (mole fraction) (in n-butanol, 283.15 K) of the same compound?
Answer: 0.0655

Question: And the solubility (mole fraction) (in n-butanol, 288.15 K)?
Answer: 0.0686

Question: And the solubility (mole fraction) (in n-butanol, 293.15 K)?
Answer: 0.0771

Question: What about the solubility (mole fraction) (in n-butanol, 298.15 K) of the same compound?
Answer: 0.08

Question: What about the solubility (mole fraction) (in n-butanol, 303.15 K) of the same compound?
Answer: 0.0869

Question: What about the solubility (mole fraction) (in n-butanol, 308.15 K) of the same compound?
Answer: 0.0952

Question: What about the solubility (mole fraction) (in sec-butanol, 273.15 K) of the same compound?
Answer: 0.00377

Question: And the solubility (mole fraction) (in sec-butanol, 278.15 K)?
Answer: 0.00528

Question: What about the solubility (mole fraction) (in sec-butanol, 283.15 K) of the same compound?
Answer: 0.00678

Question: And the solubility (mole fraction) (in sec-butanol, 288.15 K)?
Answer: 0.00961

Question: And the solubility (mole fraction) (in sec-butanol, 293.15 K)?
Answer: 0.0127

Question: What about the solubility (mole fraction) (in sec-butanol, 298.15 K) of the same compound?
Answer: 0.016

Question: And the solubility (mole fraction) (in sec-butanol, 303.15 K)?
Answer: 0.0191

Question: And the solubility (mole fraction) (in sec-butanol, 308.15 K)?
Answer: 0.0238
